# Laboratory results published in US20050282757A1, “Peptide boronic acid compounds useful in anticoagulation” (Trigen Limited, priority 2002, published 2005).
# What was measured:
# [1] = molecular target: Plasmin (Homo sapiens, UniProt P00747); assay: Plasmin inhibition, Method B (Example 52); type: biochemical; settings: Plasmin relative to Thrombin
# Description: 50 μl Plasmin (75 ng/ml in assay buffer) and 20 μl vehicle or compound solution were added to 110 μl assay buffer (100 mM Na orthophosphate (80% Na2HPO4 and 20% NaH2PO4), 200 mM NaCl, 0.5% PEG 6000, 0.02% Na azide, pH 7.5) and incubated for 5 minutes at 37° C.
# [2] = test system: dynamic coagulation markers; assay: Simulated mitral valve repair on hypothermic CPB in dogs (Example 48); type: in vivo, beagle dogs; settings: intravenous
# Description: Following a dose ranging study in conscious dogs, six beagle dogs were placed on CPB and underwent a simulated mitral valve repair. A range of dynamic coagulation markers were measured, including thrombin clotting time (TT), activated partial thromboplastin time (APTT), activated clotting time (ACT), ecarin clotting time (ECT), whole blood thrombin clotting time, platelet counts and function tests. In addition, pre and post-operative echocardiograms and intra-operative blood loss were evaluated. […] By virtue of its predictable anticoagulant efficacy and controlled duration of action, TGN 255 offers potential in on pump and off pump coronary bypass procedures.
# [3] = Stability assay before and after drying, HPLC-PDA (Example 34); type: physicochemical; settings: for Amount: 5 mg in 5 mL
# Description: An assay of TRI 50c and its sodium and lysine salts before and after drying.
# For sample analysis, 5 mg of dried and non-dried material was weighed in a 5 mL volumetric flask and dissolved in 1 mL acetonitrile and filled up with demineralised water to 5 mL.
# The quantitative evaluation was performed using an HPLC-PDA method.
# [4] = Comparative storage stability of sodium and calcium salts (Example 49); type: physicochemical; settings: for Tri50c (w/w %, LOD corr.): corrected for loss on drying
# Text: In both studies the active pharmaceutical ingredient was stored in grip sealed double bags within a PE/PP screw cap closed cylinder.
# [5] = test system: thrombin time (TT); assay: Intravenous administration into humans (Examples 40 and 46); type: in vivo
# Description: The test consisted of three groups, each of six males. From each group 5 men were given the active ingredient and 1 was given a placebo.
# Total I.V. administered doses were: • 82 mg (7 mg intravenous bolus (over 30s) followed by an infusion of 25 mg/h for 3 hours). • 130 mg (10 mg intravenous bolus (over 30s) followed by an infusion of 40 mg/h for 3 hours). • 120 mg (by infusion of 40 mg/h for 3 hours). […] Within 30 minutes after cessation of infusion there was a fall to a level at which clinically significant anticoagulation is not expected.
# [6] = Excretion of administered dose; settings: in vivo
# Text: It will be appreciated that such short duration of action (rapid offset of activity) achieved by a boronic acid is well suited for the prevention of thrombosis in intermittent apheresis procedures, and that oral administration is particularly useful in the case of elective intermittent apheresis procedures. In one class of embodiments, the apheresis procedure is haemodialysis (strictly CIHD); in another, the procedure is not haemodialysis.
# [7] = test system: thrombin time and APTT; assay: Intravenous administration in beagle dogs, PK/PD (Example 36); type: in vivo; settings: 1.0 mg/kg i.v.; for thrombin time at pharmacodynamic C max: 2 minutes post dose, base line 14.3 seconds, monosodium salt
# Description: Blood samples were taken into 3.8% tri-sodium citrate (1+8) at pre dose, 2, 5, 10, 20, 30, minutes post dose and then at 1, 2, 3, 4, 6, 8, 12 and 24 hours post dose. Plasma was prepared by centrifugation and frozen at minus 20° C. pending analysis.
# [8] = Solubility of TRI 50c monosodium salt at different pH values; type: physicochemical
# Description: It may be desirable to make aqueous solutions of boronic acid drugs for administering them. […] However, a solution with a pH of 9.5 may be unacceptable or undesirable. Accordingly, a pharmaceutically acceptable organic acid may be included in the particulate formulation in an amount selected to reduce the pH to a value at which the solution is more acceptable but at which a solution of drinkable quantity (e.g. about 50 ml to about 150 ml) may be formed by reconstituting the particulate formulation. As the organic acid may be mentioned citric acid, tartaric acid or malic acid, for example. In many instances, citric acid is chosen.
# In a first series of experiments, this amount of the salt was dissolved in 50 ml water to form a solution of approximately pH 9.5. Dilute aqueous HCl was added to determine how much the pH could be reduced before precipitation occurred.
# In a second series of experiments, the same amount of the salt was dissolved in 150 ml water, and citric acid was added. […] Since acid solutions tend to be more palatable than alkaline ones, and citric acid is a common flavouring agent, this behaviour of the salt is highly beneficial. […] In general, it is contemplated that the boronate will be formulated to form a reconstituted solution having a pH of from 4 to 8, e.g. 4 to 7, optionally 5 to 6.
# [9] = dry (1 week in desiccator over phosphorus pentoxide)
# Chain of Plasmin (P00747 581-810 limits assumed, species assumed): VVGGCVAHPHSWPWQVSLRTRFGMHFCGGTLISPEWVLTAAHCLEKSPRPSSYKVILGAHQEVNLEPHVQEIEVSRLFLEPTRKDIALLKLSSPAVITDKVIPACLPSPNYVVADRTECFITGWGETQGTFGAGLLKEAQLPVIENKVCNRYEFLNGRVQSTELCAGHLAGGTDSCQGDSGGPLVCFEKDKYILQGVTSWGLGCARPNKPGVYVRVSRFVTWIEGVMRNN
# Chain of Plasmin (P00747 97-580 limits assumed, species assumed): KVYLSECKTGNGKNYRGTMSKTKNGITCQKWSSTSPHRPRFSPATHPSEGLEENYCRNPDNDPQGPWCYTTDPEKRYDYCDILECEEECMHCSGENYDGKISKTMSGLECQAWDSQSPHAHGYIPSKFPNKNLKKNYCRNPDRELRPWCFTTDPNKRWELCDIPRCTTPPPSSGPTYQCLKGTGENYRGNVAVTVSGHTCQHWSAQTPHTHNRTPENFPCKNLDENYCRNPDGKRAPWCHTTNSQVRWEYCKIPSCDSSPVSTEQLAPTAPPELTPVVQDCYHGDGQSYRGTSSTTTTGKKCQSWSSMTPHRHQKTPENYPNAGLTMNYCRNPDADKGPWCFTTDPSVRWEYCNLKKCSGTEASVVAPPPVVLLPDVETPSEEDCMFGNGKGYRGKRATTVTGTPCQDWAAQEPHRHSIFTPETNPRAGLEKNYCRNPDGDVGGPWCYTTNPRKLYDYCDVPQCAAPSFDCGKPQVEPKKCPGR
smiles,measurement,setting,value
COCCC[C@H](NC(=O)[C@@H]1CCCN1C(=O)[C@@H](Cc1ccc(F)cc1)NC(=O)OCc1ccccc1)B([O-])O.[Na+] [TRI 50f],Selectivity,[1],>1000
"COCCC[C@H](NC(=O)[C@@H]1CCCN1C(=O)[C@@H](Cc1ccccc1)NC(=O)OCc1ccccc1)B(O)O.[Na+] [TRI 50c monosodium salt, Cbz-(R)-Phe-(S)-Pro-(R)-Mpg-B(OH)2 monosodium salt]",anticoagulation during bypass and surgery,[2],excellent anticoagulation during bypass and surgery with little bleeding
same,Purity,[3]; [9],98.81 % area
same,Amount,[3]; [9],1024 µg/mL
same,Purity,[3]; non-dried,98.61 % area
same,Amount,[3]; non-dried,1005.8 µg/mL
same,Appearance,[4]; T = 0,Powdery
same,Color,[4]; T = 0,White
same,Tri50c (w/w %),[4]; T = 0,101.1 w/w %
same,"Tri50c (w/w %, LOD corr.)",[4]; T = 0,101.5 w/w %
same,Appearance,"[4]; T = 1, 25° C./60% r.h.",powdery
same,Color,"[4]; T = 1, 25° C./60% r.h.",white
same,Tri50c (w/w %),"[4]; T = 1, 25° C./60% r.h.",99.5 w/w %
same,"Tri50c (w/w %, LOD corr.)","[4]; T = 1, 25° C./60% r.h.",103.6 w/w %
same,Appearance,"[4]; T = 1, 40° C./75% r.h.",powdery
same,Color,"[4]; T = 1, 40° C./75% r.h.",white
same,Tri50c (w/w %),"[4]; T = 1, 40° C./75% r.h.",90.3 w/w %
same,"Tri50c (w/w %, LOD corr.)","[4]; T = 1, 40° C./75% r.h.",94.5 w/w %
same,Appearance,"[4]; T = 1, −20° C.",powdery
same,Color,"[4]; T = 1, −20° C.",white
same,Tri50c (w/w %),"[4]; T = 1, −20° C.",103.1 w/w %
same,"Tri50c (w/w %, LOD corr.)","[4]; T = 1, −20° C.",104.3 w/w %
same,Appearance,"[4]; T = 3, 25° C./60% r.h.",powdery
same,Color,"[4]; T = 3, 25° C./60% r.h.",white
same,Tri50c (w/w %),"[4]; T = 3, 25° C./60% r.h.",95.3 w/w %
same,"Tri50c (w/w %, LOD corr.)","[4]; T = 3, 25° C./60% r.h.",100.4 w/w %
same,Appearance,"[4]; T = 3, 40° C./75% r.h.",viscous
same,Color,"[4]; T = 3, 40° C./75% r.h.",brown
same,Tri50c (w/w %),"[4]; T = 3, 40° C./75% r.h.",48.6 w/w %
same,"Tri50c (w/w %, LOD corr.)","[4]; T = 3, 40° C./75% r.h.",52.2 w/w %
same,Appearance,"[4]; T = 3, −20° C.",powdery
same,Color,"[4]; T = 3, −20° C.",white
same,Tri50c (w/w %),"[4]; T = 3, −20° C.",102.5 w/w %
same,Tri50c (w/w %),"[4]; T = 12, 25° C./60% r.h.",70.5 w/w %
same,"Tri50c (w/w %, LOD corr.)","[4]; T = 12, 25° C./60% r.h.",71.2 w/w %
same,time for plasma concentrations of the active principle to return to tolerably low levels,[5]; after termination of intravenous administration,≤ 30 min
same,time after cessation of infusion to fall to a level at which clinically significant anticoagulation is not expected,[5]; i.v. infusion,≤ 30 min
same,"distribution phase, time after the end of infusion",[5]; i.v. infusion for 3 hours,≤ 30 min
same,effect on thrombin time (TT),[5]; intravenous infusion,"rapid, dose-related increase in the thrombin time (TT)"
same,overall terminal elimination half life,"[5]; plasma, i.v.",about 4 hours
same,safety assessments,"[5]; single i.v. doses 82, 130, 120 mg",No clinically significant findings
same,adverse clinical events,"[5]; study period of 24 hours, any dose",no adverse clinical events of either a general or cardiovascular nature
same,administered dose excreted as TRI 50c species (acid and corresponding boronate species),[6],14%
same,thrombin time at pharmacodynamic C max,[7]; listed as TRI 50c sodium salt,154 s
same,thrombin time at pharmacodynamic C max,[7],154.4 s
same,Thrombin time,[7]; one hour post dose,26 s
same,elevation in the APTT,[7]; post dose,1.3 times
same,tolerance,[7]; total duration of the study,tolerated well with no adverse events
same,Thrombin clotting time elevation above base line,[7]; two minutes following dosing,10.8 times
same,APTT post dose,[7]; from 19 seconds,25 s
same,concentration of boronate salt solution that can be formed,[8]; pH of about 9.5,up to 600 mg/ml
same,pH below which the salt tended to precipitate,"[8]; salt equivalent to 600 mg TRI 50c in 50 ml water, dilute aqueous HCl added",below 9
same,pH reached before precipitation occurred,"[8]; salt equivalent to 600 mg TRI 50c in 150 ml water, citric acid added",3.7-3.8
